Test results taken from US10716797B2, “Steroid alkaloids and compositions and kits thereof” (priority 2013, dated 2020).
“Also recorded” adds a separate entry of the source.

Tests used:
MRSA USA100 = assay: MIC by microdilution, alone or in combination, MRSA USA100; type: cell-based, Staphylococcus aureus; conditions: agent used alone
Procedure: (§1) Method. The minimal inhibitory concentrations (MICs), (i.e. lowest concentration of an antimicrobial that will inhibit the visible growth of a microorganism after incubation), of test compounds were determined against the normal or SCV strains of bacterial species from the Firmicutes phylum. Briefly, MICs were determined using the microdilution method in 96-well plates (Clinical and Laboratory Standards Institute (CLSI), 2011). Bacteria were inoculated at ˜10^5-10^6 CFU/mL and incubated at 35° C. for 20 h (normal strains) or 48 h (SCVs) in brain heart infusion (BHI) broth in order to allow SCVs to reach maximal growth as previously described (Mitchell et al., 2012). Then OD595 nm was read on a microplate reader. […] In this example the range of compound concentrations tested was 0.03 to 64 μg/ml using doubling increments. Strain Staphylococcus aureus NewbouldΔhemB (hemB) was also used in the experiments and is a laboratory-derived stable SCV created by the insertion of the macrolide resistance gene ermA in the hemB gene of this strain to create the SCV phenotype (defective electron transport chain and respiratory deficiency) through inactivation of hemin biosynthesis (Brouillette et al., 2004).
(§2) In the present Example the range of compound concentrations tested, using doubling increments, was 0.03 to 64 μg/ml for Compound 14 and up to 1024 μg/ml for gentamicin (GEN), kanamycin (KAN) and cefalexin (CEF) when these compounds were used alone. Compound 14 (Cpd 14) was used at a fixed concentration of 4 μg/ml when added to other antibiotics. The combination of CEF and KAN was used in a 3:2 ratio and doubling increments were used to test the antibacterial activity against MRSA in the absence or presence of Compound 14.

[1] = system: methicillin-resistant Staphylococcus aureus (MRSA) strains; assay: MIC against MRSA strains; type: cell-based
Procedure: as §1, §2

S. aureus hemB (SaR1) = assay: MIC against tomatidine-resistant SCV mutant SaR1; type: cell-based, Staphylococcus aureus
Procedure: At each passage, using a microdilution method in 96-well microplates, S. aureus hemB was inoculated at ˜10^5-10^6 CFU/ml and incubated at 35° C. for 48 h. The range of tomatidine concentrations tested was 0.03 to 64 μg/ml using doubling increments. The concentration of gentamicin was fixed at 4 μg/mL when it was used in combination with tomatidine. At each passage, the minimal inhibitory concentrations (MICs) (i.e. lowest concentration of an antimicrobial that inhibits the visible growth of bacteria), of tomatidine was determined. The bacteria used as inoculum for the next passage were from the well preceeding the well showing the MIC (i.e. the well containing half the MIC). At each passage, the population of bacteria serving as the inoculum for the next passage was spread on BHI agar plates and three isolated colonies were collected and frozen until used for whole-genome sequencing.

[2] = system: Staphylococcus aureus strain SH1000 grown in biofilms; assay: Calgary biofilm device, CFU and crystal violet; type: cell-based; conditions: hydrochloride
Procedure: The bactericidal activity of tomatidine and Compound 14 in combination with gentamicin against Staphylococcus aureus was evaluated against this bacterium grown in a biofilm. Biofilms confer to bacteria protection from host defenses as well as tolerance to some antibiotics that target active and dividing cells. In addition, biofilms also provide protection against hydrodynamic shear forces, and biofilm infections are generally difficult to eradicate even in hosts with intact immune system (Costerton et al, 1999; Davies 2003).
Staphylococcus aureus strain SH1000 of the normal phenotype (i.e., non-SCV) was used for its high ability to produce biofilms. The Calgary biofilm device (96-well plates with peg lids) was used to grow S. aureus in biofilms (Ceri et al, 1999) and to test the bactericidal activity of compounds (Moskowitz et al, 2004). Briefly, S. aureus SH1000 was grown in the Calgary biofilm device for 24 h at 35° C. until the biofilm forms on the pegs. The pegs were then washed, the medium was removed and the peg lids were dipped in fresh medium containing various amounts of test compounds. […] Replicate experiments were performed in order to quantify the residual amount of biofilm on pegs by crystal violet staining and spectrophotometry (absorbance [OD] at 562 nm).

[3] = system: S. aureus SCV strain hemB; assay: Murine lung infection (pneumonia) model; type: in vivo, mouse; conditions: mice; intratracheal, 4 h post-infection; lungs 24 h post-infection; hydrochloride
Procedure: Compound efficacy in a lung infection (pneumonia) model was evaluated as follow (Ragle et al, 2010; Mitchell et al, 2013): Mice (36) were challenged with an intra-tracheal injection of S. aureus SCV strain hemB (10^7 CFU) (10^7 CFU) (normal S. aureus could also have been used, mixed or not with P. aeruginosa for a co-infection). […] More particularly, 11 mice were untreated (Unrteated); 4 mice were treated with 10 μg of tomatidine (TO (10)); 4 mice were treated with 100 μg of tomatidine (TO (100)); 3 mice were treated with 10 μg of compound 14 (Compound 14 (10)); 8 mice were treated with 100 μg of compound 14 (Compound 14 (100)); and 6 mice were treated with 200 μg of compound 14 (Compound 14 (200)). Mice were euthanized 24 h post-infection. The lungs were recovered, homogenized, and bacterial CFU per g of tissue were determined by plating appropriate dilutions on Brain Hearth Infusion agar media (other media such as for example, mannitol salt agar for S. aureus or cetrimide plates for P. aeruginosa could be used).
Each dot represents the CFU per g of tissue for one mouse. The boxes represent the CFU data distribution, the first quartile, the median and the third quartile. Statistical differences (P<0.001) between CFU recovered from treated and untreated animals are shown by asterisks (non-parametric Kruskal-Wallis ANOVA with Dunn's post test).

3-(N-aminoethyl)-aminotomatidine hydrochloride [Compound 14]
MIC (MRSA USA100): 16 µg/mL | potentiation fold on addition of Compound 14 to cefalexin:kanamycin combination ([1]; MRSA strains resistant to both cefalexin and kanamycin): 32 fold | MIC on MRSA strains ([1]; used alone, tested MRSA strains (kanamycin: two of the strains)): 16 µg/mL | Fold increase in resistance (MIC for mutant / MIC for NewbouldΔhemB) (S. aureus hemB (SaR1); mutant SaR1): 16 fold | MIC (S. aureus hemB (SaR1); tomatidine-resistant mutant SaR1): 8 µg/mL | killing of S. aureus in biofilms (Log 10 CFU/peg) ([2]; alone or in combination with gentamicin, 24 h): efficiently kills; also recorded: bactericidal | biofilm disrupting activity (residual OD562 nm) ([2]; used alone, Compound 14 at 4 μg/ml, TO at 8 μg/ml): superior biofilm disrupting activity; also recorded: can also disrupt biofilm formation | bacterial load in lungs (CFU per g of tissue) [3]: significantly reduce the bacterial load; also recorded: superior to tomatidine hydrochloride salt
